Data taken from PubChem BioAssay AID248 (DTP/NCI, 2004).
Where “and” joins values, the source holds several entries; their conditions need not be identical. Identical values can stand only once. Inconclusive results and toxic doses are left out. Rule as the data show it: active = T/C of 150% or more; inactive = T/C below 125%.

Test system: L1210 leukemia ip in BDF1 mice, survival T/C
Test: NCI In Vivo Anticancer Drug Screen. Data for tumor model L1210 Leukemia (intraperitoneal) in B6D2F1 (BDF1) mice
Conditions: endpoint: mean survival time, higher = longer survival
Outline: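 Tumor cells were implanted, animals were treated, and survival was followed. The result divides the treated measurement by the vehicle-control measurement.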

[1] = dose: 100.0 mg/kg/injection, schedule: Q04DX003 (ip), vehicle: other
[2] = dose: 200.0 mg/kg/injection, schedule: Q04DX003 (ip), vehicle: other
[3] = dose: 400.0 mg/kg/injection, schedule: Q04DX003 (ip), vehicle: other
[4] = dose: 25.0 mg/kg/injection, schedule: Q01DX009 (ip), vehicle: saline

Measured: T/C

C=C[P+](c1ccccc1)(c1ccccc1)c1ccccc1
inactive: dose: 0.78 mg/kg/injection, schedule: Q01DX009 (ip), vehicle: saline 124 % of control | dose: 1.56 mg/kg/injection, schedule: Q01DX009 (ip), vehicle: saline 104 % of control | dose: 1.56 mg/kg/injection, schedule: Q04DX003 (ip), vehicle: saline 108 % of control | dose: 3.12 mg/kg/injection, schedule: Q01DX009 (ip), vehicle: saline 93 % of control | dose: 3.12 mg/kg/injection, schedule: Q04DX003 (ip), vehicle: saline 112 % of control | dose: 5.0 mg/kg/injection, schedule: Q01DX001 (ip), vehicle: saline 115 % of control | dose: 8.88 mg/kg/injection, schedule: Q01DX001 (ip), vehicle: saline 102 % of control and 104 % of control | dose: 10.0 mg/kg/injection, schedule: Q01DX001 (ip), vehicle: saline 115 % of control | dose: 10.0 mg/kg/injection, schedule: Q04DX003 (ip), vehicle: saline 98 % of control | dose: 13.34 mg/kg/injection, schedule: Q01DX001 (ip), vehicle: saline 102 % of control and 104 % of control | dose: 20.0 mg/kg/injection, schedule: Q01DX001 (ip), vehicle: saline 102 % of control and 104 % of control | dose: 20.0 mg/kg/injection, schedule: Q04DX003 (ip), vehicle: saline 92 % of control | dose: 30.0 mg/kg/injection, schedule: Q01DX001 (ip), vehicle: saline 101 % of control and 105 % of control | dose: 40.0 mg/kg/injection, schedule: Q01DX001 (ip), vehicle: saline 97 % of control

Cc1nc2[nH]c(=S)[nH]c(=O)c2nc1C
inactive: dose: 16.0 mg/kg/injection, schedule: Q01DX Z (ip), vehicle: methylcellulose (MC) 95 % of control | dose: 31.0 mg/kg/injection, schedule: Q01DX Z (ip), vehicle: methylcellulose (MC) 119 % of control | dose: 62.0 mg/kg/injection, schedule: Q01DX Z (ip), vehicle: methylcellulose (MC) 89 % of control | dose: 125.0 mg/kg/injection, schedule: Q01DX Z (ip), vehicle: methylcellulose (MC) 95 % of control and 101 % of control | dose: 250.0 mg/kg/injection, schedule: Q01DX Z (ip), vehicle: methylcellulose (MC) 112 % of control | dose: 500.0 mg/kg/injection, schedule: Q01DX Z (ip), vehicle: methylcellulose (MC) 89 % of control

CN(C)Cc1ccccc1COC(=O)c1ccc(Br)cc1
inactive: dose: 50.0 mg/kg/injection, schedule: Q04DX002 (ip), vehicle: Klucel (hydroxypropylcellulose) (HPC) 98 % of control | dose: 100.0 mg/kg/injection, schedule: Q04DX002 (ip), vehicle: Klucel (hydroxypropylcellulose) (HPC) 105 % of control | dose: 200.0 mg/kg/injection, schedule: Q04DX002 (ip), vehicle: Klucel (hydroxypropylcellulose) (HPC) 94 % of control

O=C(O)CCSCCSCCC(=O)O
inactive: dose: 100.0 mg/kg/injection, schedule: Q01DX009 (ip), vehicle: Klucel (hydroxypropylcellulose) (HPC) 95 % of control | dose: 200.0 mg/kg/injection, schedule: Q01DX009 (ip), vehicle: Klucel (hydroxypropylcellulose) (HPC) 90 % of control | dose: 400.0 mg/kg/injection, schedule: Q01DX009 (ip), vehicle: Klucel (hydroxypropylcellulose) (HPC) 100 % of control

Cc1n[nH]c(=S)[nH]c1=O
inactive: dose: 50.0 mg/kg/injection, schedule: Q01DX001 (ip), vehicle: saline 100 % of control | dose: 100.0 mg/kg/injection, schedule: Q01DX001 (ip), vehicle: saline 100 % of control | dose: 200.0 mg/kg/injection, schedule: Q01DX001 (ip), vehicle: saline 100 % of control | dose: 400.0 mg/kg/injection, schedule: Q01DX001 (ip), vehicle: saline 94 % of control

O=C(Nc1ccc(Cl)cc1)SCCSC(=O)Nc1ccc(Cl)cc1
inactive: dose: 100.0 mg/kg/injection, schedule: Q04DX002 (ip), vehicle: other 97 % of control and 101 % of control | [1] 98 % of control and 105 % of control | dose: 200.0 mg/kg/injection, schedule: Q04DX002 (ip), vehicle: other 93 % of control and 101 % of control | [2] 94 % of control and 89 % of control | dose: 400.0 mg/kg/injection, schedule: Q04DX002 (ip), vehicle: other 95 % of control and 90 % of control | [3] 95 % of control and 91 % of control

COc1ccc(Cc2ccccc2)c(O)c1
inactive: dose: 100.0 mg/kg/injection, schedule: Q01DX009 (ip), vehicle: other 93 % of control | [1] 99 % of control | dose: 200.0 mg/kg/injection, schedule: Q01DX009 (ip), vehicle: other 111 % of control | [2] 97 % of control | [3] 91 % of control

CCc1ccccc1NC(=O)Nc1cccc2ccccc12
inactive: dose: 100.0 mg/kg/injection, schedule: Q01DX009 (ip), vehicle: gum acacia 98 % of control | dose: 100.0 mg/kg/injection, schedule: Q04DX003 (ip), vehicle: gum acacia 96 % of control | dose: 200.0 mg/kg/injection, schedule: Q01DX009 (ip), vehicle: gum acacia 95 % of control | dose: 200.0 mg/kg/injection, schedule: Q04DX003 (ip), vehicle: gum acacia 96 % of control | dose: 400.0 mg/kg/injection, schedule: Q01DX009 (ip), vehicle: gum acacia 88 % of control | dose: 400.0 mg/kg/injection, schedule: Q04DX003 (ip), vehicle: gum acacia 93 % of control

C=C(C)C(=O)OCC(O)C[N+](C)(C)C (stereo unspecified)
inactive: [4] 98 % of control | dose: 50.0 mg/kg/injection, schedule: Q01DX009 (ip), vehicle: saline 101 % of control | dose: 75.0 mg/kg/injection, schedule: Q01DX001 (ip), vehicle: saline 101 % of control | dose: 100.0 mg/kg/injection, schedule: Q01DX009 (ip), vehicle: saline 97 % of control | dose: 150.0 mg/kg/injection, schedule: Q01DX001 (ip), vehicle: saline 98 % of control

NC(CO)Cc1ccccc1 (stereo unspecified)
inactive: dose: 6.25 mg/kg/injection, schedule: Q01DX009 (ip), vehicle: saline 107 % of control | dose: 6.25 mg/kg/injection, schedule: Q04DX003 (ip), vehicle: saline 100 % of control | dose: 12.5 mg/kg/injection, schedule: Q01DX009 (ip), vehicle: saline 96 % of control | dose: 12.5 mg/kg/injection, schedule: Q04DX003 (ip), vehicle: saline 93 % of control | [4] 102 % of control | dose: 25.0 mg/kg/injection, schedule: Q04DX003 (ip), vehicle: saline 105 % of control | dose: 35.0 mg/kg/injection, schedule: Q01DX009 (ip), vehicle: saline 88 % of control | dose: 55.0 mg/kg/injection, schedule: Q01DX009 (ip), vehicle: saline 98 % of control | dose: 75.0 mg/kg/injection, schedule: Q01DX001 (ip), vehicle: carboxymethylcellulose (CMC) 86 % of control | dose: 80.0 mg/kg/injection, schedule: Q01DX009 (ip), vehicle: saline 96 % of control and 98 % of control | dose: 120.0 mg/kg/injection, schedule: Q01DX009 (ip), vehicle: saline 103 % of control | dose: 150.0 mg/kg/injection, schedule: Q01DX001 (ip), vehicle: carboxymethylcellulose (CMC) 91 % of control | dose: 180.0 mg/kg/injection, schedule: Q01DX009 (ip), vehicle: saline 121 % of control | dose: 300.0 mg/kg/injection, schedule: Q01DX001 (ip), vehicle: carboxymethylcellulose (CMC) 88 % of control
